Test results reported in paper PMC9618858, “β-Carboline dimers inhibit the tumor proliferation by the cell cycle arrest of sarcoma through intercalating to Cyclin-A2” (Frontiers in Immunology, 2022).

Molecular target: T1, Cyclin-A2 (CCNA2) (Homo sapiens, UniProt P20248)
T1 construct: recombinant human CCNA2 (rCCNA2), GST-tagged expression in BL21 (DE3), tag cleaved
Assay: ITC with purified CCNA2; supported by CETSA in MG-63 lysate and co-IP (blocks CCNA2-CDK2)
Type: binding

T1 sequence (P20248 whole entry): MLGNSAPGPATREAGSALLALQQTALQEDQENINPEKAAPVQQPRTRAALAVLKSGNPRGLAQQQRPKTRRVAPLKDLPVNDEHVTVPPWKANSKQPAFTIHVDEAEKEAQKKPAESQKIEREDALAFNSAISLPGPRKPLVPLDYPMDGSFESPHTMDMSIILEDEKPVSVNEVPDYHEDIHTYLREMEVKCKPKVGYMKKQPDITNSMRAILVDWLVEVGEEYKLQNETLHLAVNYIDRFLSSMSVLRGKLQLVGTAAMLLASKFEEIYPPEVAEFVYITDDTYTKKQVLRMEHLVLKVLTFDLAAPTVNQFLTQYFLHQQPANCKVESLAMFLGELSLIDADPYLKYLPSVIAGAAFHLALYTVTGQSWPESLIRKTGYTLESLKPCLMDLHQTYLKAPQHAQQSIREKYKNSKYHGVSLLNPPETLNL

- Kd: 2.9 mM
Compound: Cc1ccccc1Cn1c2ccccc2c2cc(C(=O)OCCCCCOC(=O)c3cc4c5ccccc5n(Cc5ccccc5C)c4cn3)ncc21 [Comp1]
